Measurements: article PMC8042770, “Odorant Receptors for Detecting Flowering Plant Cues Are Functionally Conserved across Moths and Butterflies” (Molecular Biology and Evolution, 2020)

What was measured:
[1] = system: EsemOR19; test: Xenopus oocyte voltage clamp of EsemOR19; assay type: cell-based, Eriocrania semipurpurella; details: 10^−4 M
From the text: We also examined the response profile of EsemOR19 from E. semipurpurella, an OR that falls close to the HarmOR42-defined clade but that is not considered as a HarmOR42 ortholog. […] We also characterized the function of RnubOR13 from R. nubila (Trichoptera), a species from a sister order of Lepidoptera. […] Unfortunately, the putative E. semipurpurella OR that would consist of EsemOR34 + 35 and that falls at the base of the HarmOR42 clade could not be tested as it is incomplete.
Full-length coding sequences of 45 ORs (including Orco) of H. armigera, and OR42 and Orco orthologs in B. mori, H. assulta, G. molesta, and M. separate were amplified from the antennal cDNA of each species adults by PCR with specific primer pairs of each gene. […]
(§1) Functional characterization of individual ORs was performed by heterologous expression in Xenopus oocytes combined with a two-electrode voltage-clamp system ([Wang et al. 2010]). […] After incubation in nutrient solution at 18 °C for 3–5 days, the response profile of each oocyte to multiple plant odorants was recorded via a two-electrode voltage clamp (OC-725C oocyte clamp, Warner Instruments, Hamden, CT) at a holding potential of −80 mV. Data were acquired by using a Digidata 1440 A and were analyzed by pCLAMP 10.2 software (Axon Instruments Inc., Union City, CA). […]

[2] = molecular target: HarmOR59 (Helicoverpa armigera, UniProt A0A7T3KAU6); test: Xenopus oocyte two-electrode voltage clamp, HarmOR59 + Orco; assay type: cell-based
Chain of HarmOR59 (A0A7T3KAU6 entry or part of it): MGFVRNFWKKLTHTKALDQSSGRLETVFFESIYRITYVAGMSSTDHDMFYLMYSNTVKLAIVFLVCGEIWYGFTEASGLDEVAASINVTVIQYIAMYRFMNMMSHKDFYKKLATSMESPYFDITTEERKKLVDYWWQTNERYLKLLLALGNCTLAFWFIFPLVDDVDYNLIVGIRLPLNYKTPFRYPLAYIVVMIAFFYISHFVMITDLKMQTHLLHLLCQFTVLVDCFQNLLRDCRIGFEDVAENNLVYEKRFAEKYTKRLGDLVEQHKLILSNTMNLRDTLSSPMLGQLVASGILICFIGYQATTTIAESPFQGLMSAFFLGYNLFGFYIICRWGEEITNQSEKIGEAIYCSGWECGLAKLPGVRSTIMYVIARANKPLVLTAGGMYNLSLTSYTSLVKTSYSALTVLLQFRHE
Protocol: In order to expand our analysis on the response properties of HarmORs, we conducted dose–response analyses for the 28 functional HarmORs. […] Six HarmORs (OR3, 22, 48, 50, 56, and 66) could not be activated by any ligand at 10^−5 M. For the other 22 HarmORs, dose–response curves were generated and EC50 values of their major ligands were calculated (fig. 2A and supplementary table S2, Supplementary Material online). The HarmOR repertoire was highly efficient in terpene detection, since the lowest EC50 values were obtained for such compounds. Many of these terpenes have been proposed to be defensive chemicals of plants. […] DMNT is also one of the oviposition deterring compounds found in larval frass of some Lepidoptera species such as S. littoralis ([Anderson et al. 1993]).
Functional characterization of individual ORs was performed by heterologous expression in Xenopus oocytes combined with a two-electrode voltage-clamp system ([Wang et al. 2010]). Briefly, the full-length gene of each OR and Orco were subcloned into the eukaryotic expression vector pT7TS. cRNAs were generated from linearized expression vectors using the mMESSAGE mMACHINE T7 kit (Ambion, Austin, TX). Then, the cRNA mixture of ORx and Orco (27.6 ng each) was injected (Nanoliter 2010, WPI Inc., Sarasota, FL) into oocytes (stage V–VII). The respective Orcos of different species were used for functional studies of OR42 orthologs except for the four butterfly species (V. tameamea, P. xuthus, D. plexippus, and P. rapae), in which we used the Orco from P. xuthus. After incubation in nutrient solution at 18 °C for 3–5 days, the response profile of each oocyte to multiple plant odorants was recorded via a two-electrode voltage clamp (OC-725C oocyte clamp, Warner Instruments, Hamden, CT) at a holding potential of −80 mV. Data were acquired by using a Digidata 1440 A and were analyzed by pCLAMP 10.2 software (Axon Instruments Inc., Union City, CA).
Stock solutions of each odorant were prepared at 1 M using DMSO as a solvent, and each odorant was diluted in 1× Ringer’s solution to the indicated concentrations for electrophysiological recording. For functional screening of each HarmOR, a panel of 67 odorants belonging to three types of chemical classes: terpenes, aromatics, and aliphatics (short-chain fatty acid) were used (supplementary table S1, Supplementary Material online). For functional studies of OR42 orthologs from different species, six odorants including PAA, benzaldehyde, (E)-2-hexen-1-al, cinnamaldehyde, 2-phenylethanol, and heptanal were used.

[3] = system: HarmOR42 orthologs from 11 lepidopteran species; test: Xenopus oocyte voltage clamp of HarmOR42 orthologs, six-odorant screen; assay type: cell-based; details: six compounds at 10^−4 M; 11 species
From the text: We gathered additional experimental evidence to support this conservation of a PAA-sensing function by performing in vitro functional characterization of HarmOR42 orthologs from 11 lepidopteran species belonging to eight families (fig. 5B). […] It should be noted that the species studied here included three Noctuidae species (H. armigera, H. assulta, and Mythimna separata), four moths from Bombycidae (Bombyx mori), Crambidae (Chilo suppressalis), Sphingidae (Manduca sexta), and Tortricidae (Grapholitha molesta) ([Mitter et al. 2017]; [Kawahara et al. 2019]), and four diurnal butterfly species from diverse families (Vanessa tameamea, Papilio xuthus, Danaus plexippus, and Pieris rapae) (fig. 5B). […]
as §1

[4] = system: H. armigera moths; test: Two-choice olfactometer behavioral assay, adult moths; assay type: in vivo, Helicoverpa armigera; details: females and males, 0.01 mg PAA or 50 μl 0.1% IAC, 10 h
Protocol: In a first step, we tested the attractiveness of PAA and a commercial mix of floral attractants, which takes PAA as its principal component (IAC) ([Cork 2016]; [Whitfield et al. 2019]), to H. armigera moths using a two-choice behavioral assay in a choice box (fig. 6A).
For adults, behavioral experiments were performed in a two-choice olfactometer according to a previous study with some modifications ([Del Socorro et al. 2010]). The olfactometer apparatus consisted of a main-chamber (60 cm × 30 cm × 25 cm) and two-choice subchambers under the main-chamber (20 cm × 15 cm × 25 cm) (fig. 6A). A metal gauze funnel (10 cm diameter) was inserted between the main-chamber and the subchambers. A hole at the bottom of the funnel allowed the moth to enter the subchamber. Clean humidified air flows (15 l/min) entered each subchamber and were exhausted by an exhaust fan. All the experiments were performed during the moth scotophase at 27 ± 1 °C. […] After 10 h, the number of moths in each subchamber was recorded. […] A selection ratio (SR) was calculated using the formula: SR = T/(T + C), where T represents the number of moths that entered the test subchamber and C represents the number of moths that entered the control subchamber. […] A quantity of 0.01 mg PAA was applied. […] The results were statistically analyzed using a χ^2 test.

O=CCc1ccccc1 [Phenylacetaldehyde]
response of EsemOR19 [1]: no response
EC50 [2]: 6.97 µM
ligand tuning of HarmOR42 orthologs [3]: robustly tuned to PAA as its best ligand
attractiveness to wild-type moths vs solvent [4]: more attractive to H. armigera moths than the solvent control, but the results were not statistically significant
